In patent publication US4071411A, “Antitumor antibiotics aclacinomycins A and B [RD-9187A]” (priority 1974, dated 1978):
In brackets after ≈: the same amount, converted by molar mass. Where two headings read alike, the source gives them in different places.

Experiments:
[1] = system: DNA synthesis (L1210 cells); test: cells; type: cell-based, mice; settings: Mus musculus, L1210, 1 h; 14C-precursor incorporation, 37° C., 60 min.; read-out: ID50, DNA synthesis
[2] = cardiotoxicity (general statement); settings: in vivo
[3] = basicity and lipophilicity
[4] = system: nucleic acid biosynthesis (L1210 cells); type: cell-based, mice; settings: below 1 mcg./ml. in the medium, 60 min.
[5] = acute toxicity, single injection; type: in vivo, Rat; settings: rat, in vivo, single injection
[6] = system: Rat; test: acute toxicity, single injection; type: in vivo; settings: rats
[7] = system: hepatomas; test: hepatomas in rats (summary in words); type: in vivo
[8] = system: lymphoma 6C3HED/OG, ascitic type; test: ascitic lymphoma 6C3HED/OG in CH3/He mice; type: in vivo; settings: for T/C (Survival ratio: Tested/control) / 62 day survivors / MST (Mean survival time): 10 days; for 62 day survivors: control 0/3; for MST (Mean survival time): control 20.5
[9] = system: ascitic hepatoma AH44; test: survival of Donryu rats grafted with ascitic hepatoma AH44; type: in vivo; settings: 2 mg./kg./day i.p., 10 consecutive days; control average survival 14.5 days
[10] = in vivo
[11] = system: Ehrlich carcinoma; test: growth of Ehrlich carcinoma in mice; type: in vivo; settings: ascites and solid forms
[12] = system: L1210 leukemia cells; test: survival of mice with L1210 leukemia, treatment days 1, 5 and 9; type: in vivo; settings: for 30 day survivors / Mean survival time: days 1, 5 and 9; for 30 day survivors: control 0/10; for Mean survival time: control 10.4
Description: Mice are inoculated intraperitoneally with a suspension of L1210 leukemia cells and treated with solutions of different concentrations of aclacinomycin A and 1, 5 and 9 days following the tumor implantation.

[13] = system: lymphoma 6C3HED/OG, solid type; test: growth of solid lymphoma 6C3HED/OG in CH3/He mice; type: in vivo; settings: for Inhibition / 21 day survivors / Tumor weight/Body weight / Tumor weight: 10 days; for 21 day survivors: control 7/9; for Tumor weight/Body weight: control 29.6; for Tumor weight: control 7045
[14] = system: Sarcoma 180; test: growth of Sarcoma 180 in mice; type: in vivo

SMILES: CCC1(O)CC(OC2CC(N(C)C)C(OC3CC4OC5CC(=O)C(C)OC5OC4C(C)O3)C(C)O2)c2c(cc3c(c2O)C(=O)c2c(O)cccc2C3=O)C1C(=O)OC (stereo not shown) [Aclacinomycin B]
- IC50 [1]: 4 mg/L (≈ 4.94 µM)
- cardiotoxicity [2]: low cardiotoxicity
- basicity [3]: weakly basic
- lipophilicity [3]: lipophilic
- inhibition of nucleic acid biosynthesis [4]: over 50%
- LD50 ([5]; ip, intraperitoneal): 10 to 15 mg/kg
- LD50 ([5]; intravenous): 15 mg/kg
- lethal dose (LD50), in words [6]: high lethal dose

SMILES: CCC1(O)CC(OC2CC(N(C)C)C(OC3CC(O)C(OC4CCC(=O)C(C)O4)C(C)O3)C(C)O2)c2c(cc3c(c2O)C(=O)c2c(O)cccc2C3=O)C1C(=O)OC (stereo not shown) [Aclacinomycin A]
- IC50 [1]: 1.1 mg/L (≈ 1.35 µM)
- inhibition of growth of hepatomas [7]: effective in inhibiting the growth
- T/C (Survival ratio: Tested/control) ([8]; 0.5 mg./kg./day i.p.): 73%
- 62 day survivors ([8]; 0.5 mg./kg./day i.p.): 0/3
- MST (Mean survival time) ([8]; 0.5 mg./kg./day i.p.): 15.0 days
- T/C (Survival ratio: Tested/control) ([8]; 1 mg./kg./day i.p.): 183%
- 62 day survivors ([8]; 1 mg./kg./day i.p.): 1/3
- MST (Mean survival time) ([8]; 1 mg./kg./day i.p.): 37.5 days
- T/C (Survival ratio: Tested/control) ([8]; 2 mg./kg./day i.p.): 155%
- 62 day survivors ([8]; 2 mg./kg./day i.p.): 0/3
- MST (Mean survival time) ([8]; 2 mg./kg./day i.p.): 31.8 days
- T/C (Survival ratio: Tested/control) ([8]; 4 mg./kg./day i.p.): 98%
- 62 day survivors ([8]; 4 mg./kg./day i.p.): 0/3
- MST (Mean survival time) ([8]; 4 mg./kg./day i.p.): 20.1 days
- inhibition of growth of ascitic 6C3HED/OG tumor (in words) ([8]; i.p. daily for 10 days): marked inhibition of the growth
- survival 30 days after the experiment [9]: all the treated rats were alive 30 days after the experiment
- basicity [3]: weakly basic
- cardiotoxicity [10]: low cardiotoxicity
- inhibition of growth of Ehrlich carcinoma [11]: effective in inhibiting the growth
- 30 day survivors ([12]; 1.5 mg/kg/day): 0/5
- Mean survival time ([12]; 1.5 mg/kg/day): 12.6 days
- 30 day survivors ([12]; 3 mg/kg/day): 2/5
- Mean survival time ([12]; 3 mg/kg/day): 23.3 days
- 30 day survivors ([12]; 6 mg/kg/day): 2/5
- Mean survival time ([12]; 6 mg/kg/day): 21.7 days
- 30 day survivors ([12]; 12 mg/kg/day): 0/5
- Mean survival time ([12]; 12 mg/kg/day): 16.1 days
- mean survival time of the treated mice (in words) ([12]; 6 and 3 mg./kg./day): increased considerably
- inhibition of nucleic acid biosynthesis [4]: over 50%
- Inhibition ([13]; 0.5 mg./kg./day i.p.): 47.6%
- 21 day survivors ([13]; 0.5 mg./kg./day i.p.): 3/3
- Tumor weight/Body weight ([13]; 0.5 mg./kg./day i.p.): 12.4%
- Tumor weight ([13]; 0.5 mg./kg./day i.p.): 3695 mg
- Inhibition ([13]; 1 mg./kg./day i.p.): 64.5%
- 21 day survivors ([13]; 1 mg./kg./day i.p.): 3/3
- Tumor weight/Body weight ([13]; 1 mg./kg./day i.p.): 9.5%
- Tumor weight ([13]; 1 mg./kg./day i.p.): 2501 mg
- Inhibition ([13]; 2 mg./kg./day i.p.): 34.2%
- 21 day survivors ([13]; 2 mg./kg./day i.p.): 3/3
- Tumor weight/Body weight ([13]; 2 mg./kg./day i.p.): 15.1%
- Tumor weight ([13]; 2 mg./kg./day i.p.): 4633 mg
- Inhibition ([13]; 4 mg./kg./day i.p.): 28.7%
- 21 day survivors ([13]; 4 mg./kg./day i.p.): 0/3
- Tumor weight/Body weight ([13]; 4 mg./kg./day i.p.): 19.5%
- Tumor weight ([13]; 4 mg./kg./day i.p.): 5023 mg
- inhibition of growth of solid 6C3HED/OG tumor (in words) ([13]; i.p. daily for 10 days): marked inhibition of the growth
- inhibition of growth of Sarcoma 180 [14]: effective in inhibiting the growth
- LD50 ([5]; ip, intraperitoneal): 25 to 50 mg/kg
- LD50 ([5]; intravenous): 32.5 mg/kg
- lethal dose (LD50), in words [6]: high lethal dose
